This assay deals with fibroblast growth factor 19 (FGF19) secretion in human ileum. Briefly: Human Ileum APECCS (FGF19). The assay is classed as cell-based. The settings on record: relative to GW4064.

The text below walks through data of patent US11718619B2, “Isoxazolyl-carbonyloxy azabicyclo[3.2.1]octanyl compounds as FXR activators” (ARDELYX, INC., priority 2016, dated 2023).

As for `CC(C)c1onc(-c2c(Cl)cccc2Cl)c1COc1ccc(/C=C/c2cccc(C(=O)O)c2)c(Cl)c1` [GW4064], the “Activity, % (n)” value is 100 ± 0 (154) %.
